Reference: patent US20220081434A1, “DIHYDROISOQUINOLINE COMPOUND” (SUZHOU ARK BIOPHARMACEUTICAL CO., LTD., priority 2019, published 2022)
Where two headings read alike, the source gives them in different places.

Experiments:
[1] = system: HBV DNA; assay: Determination of HBV DNA in HepG2.2.15 cell supernatant by qPCR; type: cell-based, hepatitis B virus (HepG2.2.15 cells); conditions: Hepatitis B virus, 168 h, HepG2.2.15 cells, supernatant after a total of 7 days of drug action, read-out: Inhibitory activity against HBV DNA IC50
Experimental: (§1) The full genome of HBV was inserted into an […] cell, which could therefore express HBV continuously (Sells et al, Proc Natl Acad Sci USA. 1987 February; 84 (4):1005-9). The culture condition was DMEM medium containing 10% serum and […] G418. Cells were placed in an incubator containing 5% CO2 and cultured at 37° C.
HepG2.2.15 cells were seeded into a 96-well culture plate at a density of 4×10^4 cells/well. After 4 hours, the drug dissolved in DMSO was subjected to a 4-fold dilution and then added to cells. 0.5% DMSO was added separately as control. On the 4th day of drug action, the original supernatant was removed and then the drug was added thereto again. The supernatant was collected after a total of 7 days of drug action and treated with lysis buffer. The determination of hepatitis B DNA was carried out by real-time fluorescence-based quantitative polymerase chain reaction (qPCR). After the completion of the qPCR, data were exported from the instrument and analyzed, and IC50 indicating antiviral activity was calculated after fitting the dose-response curve.

[2] = system: hepatitis B surface antigen (HBsAg); assay: Determination of hepatitis B surface antigen (HBsAg) in HepG2.2.15 cell supernatant; type: cell-based, hepatitis B virus (HepG2.2.15 cells); conditions: Hepatitis B virus, HepG2.2.15, 96 h, read-out: HBsAg inhibitory activity IC50
Experimental: as §1
HepG2.2.15 cells were seeded into a 96-well culture plate at a density of 3×10^4 cells/well. On the next day, the drug dissolved in DMSO was subjected to a 5-fold dilution and then added to the cells. 0.5% DMSO was added separately as control. The supernatant was collected after 4 days of drug action, and the content of hepatitis B surface antigen was determined.
The determination of hepatitis B surface antigen was carried out by using a kit for quantitative determination of hepatitis B virus surface antigen (chemiluminescence method). The specific operations were as follows. 50 μL cell culture supernatant was taken and transferred to the assay plate. 50 μL of enzyme-linked reagent was added thereto and the assay plate was sealed. Incubation was carried out at room temperature for 1 hour. Afterwards, the assay plate was washed six times with PBS, and finally, the residual liquid was removed by shaking the plate. 25 μL of substrates A and B were added respectively, and the determination was conducted by using a microplate reader (Tecan Infinite® F200) after ten minutes of reaction. IC50 was calculated after fitting the dose-response curve.

[3] = Pharmacokinetic experiments in ICR mice (plasma); type: in vivo; conditions: for bioavailability / AUC(0-inf) / Cmax / Tmax / clearance / half-life / AUC(0-t) / Vd: mouse, plasma; for bioavailability: oral 10 mg/kg vs intravenous 2 mg/kg, read-out: F (bioavailability); for AUC(0-t): read-out: AUC0-12; for Vd: read-out: Vss; for plasma exposure compared with the control compound: same dose, after intravenous injection and oral administration
Experimental: Multiple compounds in the Examples of the present disclosure were administered to ICR mice to conduct pharmacokinetic experiments. A single intravenous injection (with a dose of 2 mg/kg) and a single oral administration (with a dose of 10 mg/kg) were administered respectively. Blood was respectively collected prior to administration and 5 minutes, 15 minutes, 30 minutes, 1 hour, 2 hours, 4 hours, 8 hours, 12 hours and 24 hours after administration, and the concentration of the test compound in plasma was determined. Plasma pharmacokinetic data of the control compound (obtained from Example 28 in patent WO2018130152 A1) and the compounds of Examples 10 and 19 in the present disclosure in mice were as shown in the following Table 5 to Table 7.

[4] = single intravenous injection 2 mg/kg
[5] = single oral administration 10 mg/kg

Q: For COc1cc2c(cc1-c1cnc(N3CCC(CO)CC3)s1)CC(C(C)(C)C)n1cc(C(=O)O)c(=O)cc1-2 (stereo not drawn) [Example 2, 6-tert-butyl-9-{2-[4-(hydroxymethyl)piperidin-1-yl]thiazol-5-yl}-10-methoxy-2-oxo-6,7-dihydro-2H-pyrido[2,1-a]isoquinoline-3-carboxylic Acid], which IC50 [1] is on record?
A: 0.11 nM

Q: And the IC50 [2]?
A: 0.06 nM

Q: With COc1cc2c(cc1-c1cnc(N3CC(F)(F)C3)s1)CC(C(C)(C)C)n1cc(C(=O)O)c(=O)cc1-2 (stereo not drawn) [Example 4, 6-tert-butyl-9-[2-(3,3-difluoroazetidin-1-yl)thiazol-5-yl]-10-methoxy-2-oxo-6,7-dihydro-2H-pyrido[2,1-a]isoquinoline-3-carboxylic Acid] as the compound, how does the IC50 [1] read?
A: 0.26 nM

Q: What about the IC50 [2] of the same compound?
A: 0.045 nM

Q: With COc1cc2c(cc1-c1cnc(N3CCC(C)(O)CC3)s1)CC(C(C)(C)C)n1cc(C(=O)O)c(=O)cc1-2 (stereo not drawn) [Example 7, 6-tert-butyl-9-[2-(4-hydroxy-4-methylpiperidin-1-yl)thiazol-5-yl]-10-methoxy-2-oxo-6,7-dihydro-2H-pyrido[2,1-a]isoquinoline-3-carboxylic Acid] as the compound, how does the IC50 [1] read?
A: 0.15 nM

Q: And the IC50 [2]?
A: 0.08 nM

Q: With COc1cc2c(cc1-c1cnc(N3CC(OC)C3)s1)CC(C(C)(C)C)n1cc(C(=O)O)c(=O)cc1-2 (stereo not drawn) [Example 9, 6-tert-butyl-10-methoxy-9-[2-(3-methoxyazetidin-1-yl)thiazol-5-yl]-2-oxo-6,7-dihydro-2H-pyrido[2,1-a]isoquinoline-3-carboxylic Acid] as the compound, how does the IC50 [1] read?
A: 0.1 nM

Q: And the IC50 [2]?
A: 0.03 nM

Q: Which IC50 [1] does the source give for COCc1ncc(-c2cc3c(cc2OC)-c2cc(=O)c(C(=O)O)cn2C(C(C)(C)C)C3)s1 (stereo not drawn) [Example 10, 6-tert-butyl-10-methoxy-9-[2-(methoxymethyl)thiazol-5-yl]-2-oxo-6,7-dihydro-2H-pyrido[2,1-a]isoquinoline-3-carboxylic Acid] here?
A: 0.13 nM

Q: And the bioavailability [3]?
A: 33.9%

Q: What about the AUC(0-inf) [3, 4] of the same compound?
A: 804 ng·h/mL

Q: And the Cmax [3, 4]?
A: 423 ng/mL

Q: And the Tmax [3, 4]?
A: 4.8 min

Q: And the clearance [3, 4]?
A: 41.4 mL/min/kg

Q: And the half-life [3, 4]?
A: 114 min

Q: And the AUC(0-t) [3, 4]?
A: 796 ng·h/mL

Q: And the Vd [3, 4]?
A: 5.42 L/kg

Q: And the AUC(0-inf) [3, 5]?
A: 1400 ng·h/mL

Q: What about the Cmax [3, 5] of the same compound?
A: 458 ng/mL

Q: And the Tmax [3, 5]?
A: 30 min

Q: What about the half-life [3, 5] of the same compound?
A: 156 min

Q: And the AUC(0-t) [3, 5]?
A: 1350 ng·h/mL

Q: What about the “plasma exposure compared with the control compound” value [3] of the same compound?
A: significantly higher

Q: And the IC50 [2]?
A: 0.2 nM

Q: Which IC50 [1] does the source give for COc1cc2c(cc1-c1cnc(N3CC(F)C3)s1)CC(C(C)(C)C)n1cc(C(=O)O)c(=O)cc1-2 (stereo not drawn) [Example 11, 6-tert-butyl-9-[2-(3-fluoroazetidin-1-yl)thiazol-5-yl]-10-methoxy-2-oxo-6,7-dihydro-2H-pyrido[2,1-a]isoquinoline-3-carboxylic Acid] here?
A: 0.13 nM

Q: And the IC50 [2]?
A: 0.09 nM

Q: For CCOc1ncc(-c2cc3c(cc2OC)-c2cc(=O)c(C(=O)O)cn2C(C(C)(C)C)C3)s1 (stereo not drawn) [Example 13, 6-tert-butyl-9-[2-(ethoxy)thiazol-5-yl]-10-methoxy-2-oxo-6,7-dihydro-2H-pyrido[2,1-a]isoquinoline-3-carboxylic Acid], which IC50 [1] is on record?
A: 0.31 nM

Q: And the IC50 [2]?
A: 0.2 nM

Q: For COc1cc2c(cc1-c1cnc(C(C)O)s1)CC(C(C)(C)C)n1cc(C(=O)O)c(=O)cc1-2 (stereo not drawn) [Example 16, 6-tert-butyl-9-[2-(1-hydroxyethyl)thiazol-5-yl]-10-methoxy-2-oxo-6,7-dihydro-2H-pyrido[2,1-a]isoquinoline-3-carboxylic Acid], which IC50 [1] is on record?
A: 0.41 nM

Q: What about the IC50 [2] of the same compound?
A: 0.1 nM

Q: What does the source list for CCCc1ncc(-c2cc3c(cc2OC)-c2cc(=O)c(C(=O)O)cn2C(C(C)(C)C)C3)s1 (stereo not drawn) [Example 18, 6-tert-butyl-10-methoxy-2-oxo-9-(2-propylthiazol-5-yl)-6,7-dihydro-2H-pyrido[2,1-a]isoquinoline-3-carboxylic Acid]?
A: IC50 [1]: 0.06 nM; IC50 [2]: 0.09 nM

Q: What does the source list for CNC(=O)c1ncc(-c2cc3c(cc2OC)-c2cc(=O)c(C(=O)O)cn2C(C(C)(C)C)C3)s1 (stereo not drawn) [Example 19, 6-tert-butyl-10-methoxy-9-[2-(methylcarbamoyl)thiazol-5-yl]-2-oxo-6,7-dihydro-2H-pyrido[2,1-a]isoquinoline-3-carboxylic Acid]?
A: bioavailability [3]: 87%; AUC(0-inf) [3, 4]: 1210 ng·h/mL; Cmax [3, 4]: 1020 ng/mL; Tmax [3, 4]: 4.8 min; clearance [3, 4]: 27.6 mL/min/kg; half-life [3, 4]: 78 min; AUC(0-t) [3, 4]: 1200 ng·h/mL; Vd [3, 4]: 2.27 L/kg; AUC(0-inf) [3, 5]: 5290 ng·h/mL; Cmax [3, 5]: 2420 ng/mL; Tmax [3, 5]: 30 min; half-life [3, 5]: 150 min; AUC(0-t) [3, 5]: 5210 ng·h/mL; plasma exposure compared with the control compound [3]: significantly higher; IC50 [2]: 0.3 nM

Q: Which results are given for COc1cc2c(cc1-c1cnc(COC(F)F)s1)CC(C(C)(C)C)n1cc(C(=O)O)c(=O)cc1-2 (stereo not drawn) [Example 23, 6-tert-butyl-9-{2-[(difluoromethoxy)methyl]thiazol-5-yl}-10-methoxy-2-oxo-6,7-dihydro-2H-pyrido[2,1-a]isoquinoline-3-carboxylic Acid]?
A: IC50 [1]: 0.84 nM; IC50 [2]: 0.2 nM

Q: For COc1cc2c(cc1-c1cnc(COC3CC3)s1)CC(C(C)(C)C)n1cc(C(=O)O)c(=O)cc1-2 (stereo not drawn) [Example 24, 6-tert-butyl-9-[2-(cyclopropoxymethyl)thiazol-5-yl]-10-methoxy-2-oxo-6,7-dihydro-2H-pyrido[2,1-a] isoquinoline-3-carboxylic Acid], which IC50 [1] is on record?
A: 0.45 nM

Q: And the IC50 [2]?
A: 0.2 nM

Q: With COc1cc2c(cc1-c1cnc(C3CC(F)(F)C3)s1)CC(C(C)(C)C)n1cc(C(=O)O)c(=O)cc1-2 (stereo not drawn) [Example 25, 6-tert-butyl-9-[2-(3,3-difluorocyclobutyl)thiazol-5-yl]-10-methoxy-2-oxo-6,7-dihydro-2H-pyrido[2,1-a]isoquinoline-3-carboxylic Acid] as the compound, how does the IC50 [2] read?
A: 0.24 nM

Q: Which IC50 [2] does the source give for COc1cc2c(cc1-c1cnc(C3CC(F)C3)s1)CC(C(C)(C)C)n1cc(C(=O)O)c(=O)cc1-2 (stereo not drawn) [Example 26, 6-tert-butyl-9-[2-(3-fluorocyclobutyl)thiazol-5-yl]-10-methoxy-2-oxo-6,7-dihydro-2H-pyrido[2,1-a]isoquinoline-3-carboxylic Acid] here?
A: 0.1 nM

Q: Which IC50 [2] does the source give for COc1cc2c(cc1-c1cnc(C3CC(OC)C3)s1)CC(C(C)(C)C)n1cc(C(=O)O)c(=O)cc1-2 (stereo not drawn) [Example 27, 6-tert-butyl-10-methoxy-9-[2-(3-methoxycyclobutyl)thiazol-5-yl]-2-oxo-6,7-dihydro-2H-pyrido[2,1-a]isoquinoline-3-carboxylic Acid] here?
A: 0.1 nM
